Assay results as given in patent US6414145B1, “Imidazolyl compounds as inhibitors of farnesyl-protein tranferase” (Zeneca Limited, priority 1997, dated 2002).

How the values were obtained:
[1] = target: T1, Farnesyl protein transferase (FPT) (Homo sapiens, UniProt P49354+P49356); test: Farnesyl protein transferase (FPT) inhibition, tritiated farnesyl pyrophosphate incorporation into Kras (CVIM); type: biochemical; conditions: FPT partially purified from human placenta; 300 nM tritiated farnesyl pyrophosphate, 120 nM ras-CVIM, 20 minutes at 37°
T1 construct: partially purified from human placenta by ammonium sulphate fractionation; from tissue; host or cells: human placenta
Method: Biological activity was tested as follows. Farnesyl protein transferase (FPT) was partially purified from human placenta by ammonium sulphate fractionation followed by a single Q-Sepharose™ (Pharmacia, Inc) anion exchange chromatography essentially as described by Ray and Lopez-Belmonte (Ray K P and Lopez-Belmonte J (1992) Biochemical Society Transations 20 494-497). The substrate for FPT was Kras (CVIM C-terminal sequence). The cDNA for oncogenic va112 variant of human c-Ki-ras-2 4B was obtained from the plasmid pSW11-1 (ATCC). This was then subcloned into the polylinker of a suitable expression vector e.g. pIC147, The Kras was obtained after expression in the E. coli strain, BL21. The expression and purification of c-KI-ras-2 4B and the val12 variant in E. coli has also been reported by Lowe et al (Lowe P N et al. J. Biol. Chem. (1991) 266 1672-1678).
Incubations with enzyme contained 300 nM tritiated farnesyl pyrophosphate (DuPont/New England Nuclear), 120 nM ras-CVIM, 50 mM Tris HCl pH 8.0, 5 mM MgCl2, 10 μM ZnCl2, 5 mM dithiotheitol and compounds were added at appropriate concentrations in DMSO (3% final concentration in test and vehicle control). […] Precipitated protein was then collected onto glass fibre filter mats (B) using a Tomtec™ cell harvester and tritiated label was measured in a Wallac™ 1204 Betaplate scintillation counter.

SMILES | melting point | IC50 [1]
CSCC[C@H](NC(=O)c1ccc(/C=C(/Cn2ccnc2)c2ccc(F)cc2)cc1)C(=O)O [Example 12, (2S)-2-{4-[(E)-2-(4-Fluorophenyl)-3-(imidazol-1-yl)-prop-1-en-1-yl]benzamido}-4-methylsulfanylbutyric acid] | 106 °C | –
CSCC[C@H](NC(=O)c1cccc(/C=C(\Cn2ccnc2)c2ccc(F)cc2)c1)C(=O)O [Example 3, (2S)-2-{3-[(Z)-2-(4-fluorophenyl)-3-(imidazol-1-yl)-prop-1-enyl]-benzamido}-4-methylsulfanylbutyric acid] | 98 to 100 °C | –
CSCC[C@H](NC(=O)c1ccc(/C=C(\c2ccccc2)C(C)n2ccnc2)cc1)C(=O)O (stereo partly drawn) [Example 6, (2S)-2-{4-[(E)-3-(imidazol-1-yl)-3-methyl-2-phenyl-prop-1-enyl]-benzamido}-4-methylsulfanylbutyric acid] | – | ~0.15 µM
